Results published in PubChem BioAssay AID1918940 (Molecular Pharmacology Branch, DTP, NCI, 2023).

Test system: NCI-H211 complex spheroid viability
Assay: Anticancer human tumor NCI-H211 cell line growth inhibition [LSD1];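 also: luminescent viability read after seven days of drug exposure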;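 as to viability, T/C: 100% = DMSO vehicle control viability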
Conditions: for IC50: curve of first compound; for viability, T/C: stronger effect = lower value
In short: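 Complex spheroids of tumor cells with HUVEC and human MSCs, exposed to iadademstat combined with other agents. Each agent tested in half-log steps from near clinical Cmax (else 10 microM top), DMSO ≤0.25%.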

[1] = second compound 0.1 µM, first compound 0.00949 µM
[2] = second compound 0.1 µM, first compound 0.03 µM
[3] = second compound 0.1 µM, first compound 0.0949 µM
[4] = second compound 0.1 µM, first compound 0.3 µM
[5] = second compound 0.1 µM, first compound 0.949 µM
[6] = second compound 0.1 µM, first compound 3 µM
[7] = second compound 0.316 µM, first compound 0.00949 µM
[8] = second compound 0.316 µM, first compound 0.03 µM
[9] = second compound 0.316 µM, first compound 0.0949 µM
[10] = second compound 0.316 µM, first compound 0.3 µM
[11] = second compound 0.316 µM, first compound 0.949 µM
[12] = second compound 0.316 µM, first compound 3 µM
[13] = second compound 1 µM, first compound 0.00949 µM
[14] = second compound 1 µM, first compound 0.03 µM
[15] = second compound 1 µM, first compound 0.0949 µM
[16] = second compound 1 µM, first compound 0.3 µM
[17] = second compound 1 µM, first compound 0.949 µM
[18] = second compound 1 µM, first compound 3 µM
[19] = second compound 3.16 µM, first compound 0.00949 µM
[20] = second compound 3.16 µM, first compound 0.03 µM
[21] = second compound 3.16 µM, first compound 0.0949 µM
[22] = second compound 3.16 µM, first compound 0.3 µM
[23] = second compound 3.16 µM, first compound 0.949 µM
[24] = second compound 3.16 µM, first compound 3 µM
[25] = second compound 10 µM, first compound 0.00949 µM
[26] = second compound 10 µM, first compound 0.03 µM
[27] = second compound 10 µM, first compound 0.0949 µM
[28] = second compound 10 µM, first compound 0.3 µM
[29] = second compound 10 µM, first compound 0.949 µM
[30] = second compound 10 µM, first compound 3 µM

| SMILES | IC50 (second compound 0.1 µM) [nM] | IC50 (second compound 0.316 µM) [nM] | IC50 (second compound 1 µM) [nM] | IC50 (second compound 3.16 µM) [nM] | IC50 (second compound 10 µM) [nM] | viability, T/C [1] [%] | viability, T/C [2] [%] | viability, T/C [3] [%] | viability, T/C [4] [%] | viability, T/C [5] [%] | viability, T/C [6] [%] | viability, T/C [7] [%] | viability, T/C [8] [%] | viability, T/C [9] [%] | viability, T/C [10] [%] | viability, T/C [11] [%] | viability, T/C [12] [%] | viability, T/C [13] [%] | viability, T/C [14] [%] | viability, T/C [15] [%] | also measured |
| --- | --- | --- | --- | --- | --- | --- | --- | --- | --- | --- | --- | --- | --- | --- | --- | --- | --- | --- | --- | --- | --- |
| NS(=O)(=O)OCC1CC(n2ccc3c(NC4CCc5ccccc54)ncnc32)CC1O (stereo not given) + NC1CC1c1ccc(-c2cccc(O)c2)cc1 | < 9.49 | < 9.49 | < 9.49 | < 9.49 | < 9.49 | 21.2 | 9.36 | 4.3 | 1.71 | 1.1 | 0.94 | 20.3 | 13.6 | 2.93 | 1.2 | 1.09 | 0.81 | 20.4 | 10.4 | 3.57 | viability, T/C [16]: 1.64%; viability, T/C [17]: 1.11%; viability, T/C [18]: 0.79%; viability, T/C [19]: 26.8%; viability, T/C [20]: 13.2%; viability, T/C [21]: 5.17%; viability, T/C [22]: 2.04%; viability, T/C [23]: 0.97%; viability, T/C [24]: 0.81%; viability, T/C [25]: 27.4%; viability, T/C [26]: 12%; viability, T/C [27]: 5.24%; viability, T/C [28]: 1.75%; viability, T/C [29]: 0.61%; viability, T/C [30]: 0.57% |
| Nc1ccccc1NC(=O)c1ccc(CNC(=O)OCc2cccnc2)cc1 + NC1CC1c1ccc(-c2cccc(O)c2)cc1 | 12.2 | < 9.49 | < 9.49 | < 9.49 | 12 | 56.5 | 26.4 | 4.02 | 1.9 | 1.18 | 0.14 | 46.8 | 18.2 | 4.2 | 2.36 | 1.27 | 0.1 | 45.8 | 25.1 | 3.68 | viability, T/C [16]: 2.02%; viability, T/C [17]: 1.28%; viability, T/C [18]: 0.1%; viability, T/C [19]: 43.4%; viability, T/C [20]: 24.5%; viability, T/C [21]: 4.34%; viability, T/C [22]: 3.1%; viability, T/C [23]: 1.14%; viability, T/C [24]: 0.14%; viability, T/C [25]: 53.6%; viability, T/C [26]: 36.1%; viability, T/C [27]: 5.02%; viability, T/C [28]: 2.76%; viability, T/C [29]: 0.95%; viability, T/C [30]: 0.16% |
| O=C(C=Cc1cccc(S(=O)(=O)Nc2ccccc2)c1)NO + NC1CC1c1ccc(-c2cccc(O)c2)cc1 | < 9.49 | < 9.49 | < 9.49 | < 9.49 | < 9.49 | 14.7 | 8.14 | 7.87 | 3.8 | 0.63 | 0.14 | 13.9 | 7.23 | 7.38 | 4.67 | 0.66 | 0.16 | 13.9 | 8.11 | 9.23 | viability, T/C [16]: 4.38%; viability, T/C [17]: 0.39%; viability, T/C [18]: 0.17%; viability, T/C [19]: 15.4%; viability, T/C [20]: 7.28%; viability, T/C [21]: 7.21%; viability, T/C [22]: 4.21%; viability, T/C [23]: 0.29%; viability, T/C [24]: 0.16%; viability, T/C [25]: 13.5%; viability, T/C [26]: 6.43%; viability, T/C [27]: 7.11%; viability, T/C [28]: 3.82%; viability, T/C [29]: 0.24%; viability, T/C [30]: 0.27% |
